From paper PMC11284788, “NN1213 – A Potent, Long-Acting, and Selective Analog of Human Amylin” (Journal of Medicinal Chemistry, 2024)
≈ marks a conversion by molar mass, not a printed value. Numbered stars: 1 amine (or outer) side, 2 acyl side, 3 side chain; on linkers, the order of the positions; unused ones are H or OH. Bridge positions count the residues as written; N and C are the ends. Side chains are listed from the residue outwards. Peptide text beside a SMILES is read from it. * marks the point of attachment. C20 diacid = O=C(O)CCCCCCCCCCCCCCCCCCC(=O)*; γGlu = O=C(O)[C@H](CCC(=O)[*:2])N[*:1]

Key:
[1] = Solubility versus pH profile
hAMY3R [2] = molecular target: T1, hAMY3R (Homo sapiens, UniProt O60896+P30988); experiment: cAMP-responsive element luciferase reporter assay, human AMY3R; assay type: cell-based; parameters: expressed in transfected cells; settings: for ratio hCTR/hAMY3R: ratio of luciferase EC50 values
T1 sequence (P30988 25-474): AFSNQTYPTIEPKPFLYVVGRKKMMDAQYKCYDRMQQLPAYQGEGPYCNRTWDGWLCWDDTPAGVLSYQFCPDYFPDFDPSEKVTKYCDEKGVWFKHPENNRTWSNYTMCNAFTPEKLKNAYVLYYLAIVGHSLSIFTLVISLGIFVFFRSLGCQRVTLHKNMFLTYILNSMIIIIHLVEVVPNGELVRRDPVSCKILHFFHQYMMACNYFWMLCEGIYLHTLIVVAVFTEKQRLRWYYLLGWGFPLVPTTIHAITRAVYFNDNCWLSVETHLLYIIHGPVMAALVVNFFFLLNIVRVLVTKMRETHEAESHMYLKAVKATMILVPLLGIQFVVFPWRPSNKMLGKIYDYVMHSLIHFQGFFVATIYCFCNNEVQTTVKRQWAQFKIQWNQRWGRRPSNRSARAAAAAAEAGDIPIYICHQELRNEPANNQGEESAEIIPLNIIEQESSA
T1 sequence (O60896 24-148 partner): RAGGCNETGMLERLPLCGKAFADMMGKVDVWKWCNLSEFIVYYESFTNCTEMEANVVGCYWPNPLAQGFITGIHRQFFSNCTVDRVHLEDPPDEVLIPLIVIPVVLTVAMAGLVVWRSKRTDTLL

hAMY3R [3] = molecular target: T1, hAMY3R; experiment: scintillation proximity binding assay, hAMY3R membranes; parameters: expressed in transfected cells; host or cells: BHK tk-ts 13, transient co-transfection; membranes for the SPA, whole cells for the species-specific assays; settings: for ratio hCTR/hAMY3R: ratio of binding IC50 values; for hAMY3R pIC50: SPA binding assay, Tables S13 and S15
Procedure: The apparent binding affinities were determined using a scintillation proximity assay with beads from PerkinElmer and cell membranes containing the AMY3R or CTRs. […] Membranes were harvested and membranes were prepared and kept at −80 °C until use. The assay was performed in a 384-well Optiplate (PerkinElmer). Membranes were mixed with scintillation proximity assay beads in a 1:1 ratio. […] Samples were analyzed on a TopCounter (Packard). The IC50 values were calculated using GraphPad Prism. See Supporting Information S7: SAR Screening Assay Methods (Binding Assays (Human and Rat)) for more information.
Binding Assays (Human and Rat). Brief descriptions of the methods used to determine binding affinities for SAR analysis are described below. Curves and IC50 values were plotted and calculated in GraphPad Prism using nonlinear regression (one site binding competition analysis), with pIC50 values […]
values were used to calculate the binding affinity ratios in order to express the selectivity of compounds for the AMY3R versus the CTR.
CTR Binding Assay. The binding assay was performed using scintillation proximity assay (SPA) beads (RPNQ0001) from PerkinElmer and cell membranes containing either the hCTR or rCTR. BHK […]
(§1) Membranes were prepared in the following way: the cells were rinsed with PBS and incubated with Versene for approximately 5 min before harvesting. The cells were flushed with PBS and the cell-suspension was centrifuged for 5 min at 1000 rpm. Cells were homogenized (Ultra Turrax) in a buffer […]
containing 20 mM Na-HEPES and 0.1 mM EDTA (pH 7.4, buffer 2). The resulting pellet was re-suspended in buffer 2 and protein concentration was measured (BCA protein assay, Pierce). The homogenate was kept cold during the whole procedure. The membranes were stored at –80 °C until […]
The binding assay was performed in a 384-well Optiplate (PerkinElmer) in a total volume of 40 μL.
Membranes were mixed with SPA beads in a 1:1 ratio. […]
mg/well. Test compounds were dissolved in DMSO and further diluted in assay buffer (50 mM HEPES, pH 7.4, 1 mM CaCl2, 5 mM MgCl2, 0.1% ovalbumin, and 0.02% Tween-20).
Calcitonin (NEX422 PerkinElmer) was dissolved in assay buffer and added to the Optiplate at a final […]
prior to centrifugation (1500 rpm, 10 min). Samples were analyzed on TopCounter (Packard).
AMY3R Binding Assay. The binding assay was performed using SPA beads (RPNQ0001) from PerkinElmer and cell membranes containing either the hAMY3R or rAMY3R. BHK tk-ts 13 cells were […]
as §1, with “and cultured as described above. Membranes” for “Membranes”, “buffer containing 20 mM Na-HEPES and 10 mM EDTA (pH 7.4), and” for “buffer”
The resulting pellet was re-suspended, homogenized, and
7.4, buffer 2). The resulting pellet was re-suspended in buffer 2 and protein concentration was measured (BCA protein assay, Pierce). The homogenate was kept cold during the whole procedure.
The membranes were stored at –80 °C until use.
Membranes were mixed with SPA beads in a 1:1 ratio. The final concentration of SPA beads was 0.05 mg/well. Test compounds were dissolved in DMSO and further diluted in assay buffer (50 mM […]
rAMY (NEX448 PerkinElmer) was dissolved in assay buffer and added to the Optiplate at a final

[4] = bis-tris-propane buffer, pH 6, aqueous buffer
[5] = bis-tris-propane buffer, pH 6.5, aqueous buffer
[6] = bis-tris-propane buffer, pH 7, aqueous buffer
[7] = bis-tris-propane buffer, pH 7.5, aqueous buffer
[8] = bis-tris-propane buffer, pH 8, aqueous buffer
[9] = lactate buffer, pH 4, aqueous buffer
[10] = lactate buffer, pH 5, aqueous buffer

Row | solubility kinetic [1, 4] [µM] | solubility kinetic [1, 5] [µM] | solubility kinetic [1, 6] [µM] | solubility kinetic [1, 7] [µM] | solubility kinetic [1, 8] [µM] | solubility kinetic [1, 9] [µM] | solubility kinetic [1, 10] [µM] | ratio hCTR/hAMY3R (hAMY3R [2]) | ratio hCTR/hAMY3R (hAMY3R [3]) | hAMY3R pIC50 (hAMY3R [3]) | IC50 (hAMY3R [3]; SPA, BHK cell membranes, 125I-rat amylin, 120 min 25 °C, read-out: hAMY3R IC50) [pM] | hAMY3R pEC50 (hAMY3R [2]; luciferase (human receptor assay), Tables S12 and S14) | EC50 (hAMY3R [2]; luciferase (human receptor assay), BHK cells stably expressing hCTR+RAMP3 and CRE-luciferase, 3 h, 37 °C, 10% FBS, read-out: hAMY3R EC50) [pM] | SMILES
1 | ≥ 200 | 190 (≈ 857 µg/mL) | ≥ 200 | ≥ 200 | ≥ 200 | ≥ 200 | ≥ 200 | 15 | 55 | – | – | – | – | CC[C@H](C)[C@H](NC(=O)[C@H](C)NC(=O)CNC(=O)[C@H](Cc1ccccc1)NC(=O)[C@H](CC(N)=O)NC(=O)[C@@H]1CCCN1C(=O)[C@H](CO)NC(=O)[C@H](CO)NC(=O)[C@H](Cc1c[nH]cn1)NC(=O)[C@H](CCCNC(=N)N)NC(=O)[C@H](CC(C)C)NC(=O)[C@H](Cc1ccccc1)NC(=O)[C@H](CC(=O)O)NC(=O)[C@H](C)NC(=O)[C@H](CC(C)C)NC(=O)[C@H](CCCNC(=N)N)NC(=O)[C@H](CCC(N)=O)NC(=O)[C@@H](NC(=O)[C@H](C)NC(=O)[C@@H]1CSSC[C@H](NC(=O)[C@@H](N)CCCCNC(=O)CC[C@H](NC(=O)CC[C@H](NC(=O)CCCCCCCCCCCCCCCCCCC(=O)O)C(=O)O)C(=O)O)C(=O)N[C@@H](CC(N)=O)C(=O)N[C@@H]([C@@H](C)O)C(=O)N[C@@H](C)C(=O)N[C@@H]([C@@H](C)O)C(=O)N1)[C@@H](C)O)C(=O)N1CCC[C@H]1C(=O)N[C@@H](CO)C(=O)N[C@@H](CO)C(=O)N[C@H](C(=O)N[C@@H](CC(N)=O)C(=O)N[C@H](C(=O)NCC(=O)N[C@@H](CO)C(=O)N[C@@H](CC(=O)O)C(=O)N[C@H](C(=O)N[C@@H](Cc1ccc(O)cc1)C(N)=O)[C@@H](C)O)C(C)C)[C@@H](C)O [Peptide 6] (H-K([γGlu-γGlu-C20 diacid])CNTATCATQRLADFLRHSSPNFGAIPSSTNVGSDTY-NH2; disulfide 2-7)
2 | 189 (≈ 853 µg/mL) | ≥ 200 | 195 (≈ 880 µg/mL) | ≥ 200 | ≥ 200 | 96 (≈ 433 µg/mL) | 141 (≈ 636 µg/mL) | 6.9 | 10 | 8.95 | 1120 | – | – | CC(C)C[C@H](NC(=O)[C@H](CCCNC(=N)N)NC(=O)[C@H](CCC(N)=O)NC(=O)[C@@H](NC(=O)[C@H](C)NC(=O)[C@@H]1CSSC[C@H](NC(=O)[C@@H](N)CCCCNC(=O)CC[C@H](NC(=O)CC[C@H](NC(=O)CCCCCCCCCCCCCCCCCCC(=O)O)C(=O)O)C(=O)O)C(=O)N[C@@H](CC(N)=O)C(=O)N[C@@H]([C@@H](C)O)C(=O)N[C@@H](C)C(=O)N[C@@H]([C@@H](C)O)C(=O)N1)[C@@H](C)O)C(=O)N[C@@H](C)C(=O)N[C@@H](CC(=O)O)C(=O)N[C@@H](Cc1ccccc1)C(=O)N[C@@H](CC(C)C)C(=O)N[C@@H](CCCNC(=N)N)C(=O)N[C@@H](Cc1c[nH]cn1)C(=O)N[C@@H](CO)C(=O)N[C@@H](CO)C(=O)N[C@@H](CC(N)=O)C(=O)N1CCC[C@H]1C(=O)N[C@@H](Cc1ccccc1)C(=O)NCC(=O)N[C@@H](C)C(=O)N1CCC[C@H]1C(=O)N[C@@H](CC(C)C)C(=O)N[C@@H](CO)C(=O)N[C@@H](CO)C(=O)N[C@H](C(=O)N[C@@H](CC(N)=O)C(=O)N[C@H](C(=O)NCC(=O)N[C@@H](CO)C(=O)N[C@@H](CC(=O)O)C(=O)N[C@H](C(=O)N[C@@H](Cc1ccc(O)cc1)C(N)=O)[C@@H](C)O)C(C)C)[C@@H](C)O [Peptide 7] (H-K([γGlu-γGlu-C20 diacid])CNTATCATQRLADFLRHSSNPFGAPLSSTNVGSDTY-NH2; disulfide 2-7)
3 | ≥ 200 | ≥ 200 | ≥ 200 | ≥ 200 | ≥ 200 | ≥ 200 | ≥ 200 | 23 | 90 | 8.94 | – | 9.36 | 432 | CC[C@H](C)[C@H](NC(=O)[C@H](C)NC(=O)CNC(=O)[C@H](Cc1ccccc1)NC(=O)[C@H](CC(N)=O)NC(=O)[C@@H]1CCCN1C(=O)[C@H](CO)NC(=O)[C@H](CO)NC(=O)[C@H](Cc1c[nH]cn1)NC(=O)[C@H](CCCNC(=N)N)NC(=O)[C@H](CC(C)C)NC(=O)[C@H](Cc1ccccc1)NC(=O)[C@H](CC(N)=O)NC(=O)[C@H](C)NC(=O)[C@H](CC(C)C)NC(=O)[C@H](CCCNC(=N)N)NC(=O)[C@H](CCC(N)=O)NC(=O)[C@@H](NC(=O)[C@H](C)NC(=O)[C@@H]1CSSC[C@H](NC(=O)[C@H](CCCCN)NC(=O)COCCOCCNC(=O)COCCOCCNC(=O)CC[C@H](NC(=O)CCCCCCCCCCCCCCCCCCC(=O)O)C(=O)O)C(=O)N[C@@H](CC(N)=O)C(=O)N[C@@H]([C@@H](C)O)C(=O)N[C@@H](C)C(=O)N[C@@H]([C@@H](C)O)C(=O)N1)[C@@H](C)O)C(=O)N1CCC[C@H]1C(=O)N[C@@H](CO)C(=O)N[C@@H](CO)C(=O)N[C@H](C(=O)N[C@@H](CC(N)=O)C(=O)N[C@H](C(=O)NCC(=O)N[C@@H](CO)C(=O)N[C@@H](CC(N)=O)C(=O)N[C@H](C(=O)N[C@@H](Cc1ccc(O)cc1)C(N)=O)[C@@H](C)O)C(C)C)[C@@H](C)O [Peptide 10]
